Literature values as cited in US20220143227A1, “Method of Treatment of Neuroendocrine Tumors That Over-Express Somatostatatin Receptors” (ADVANCED ACCELERATOR APPLICATIONS, priority 2015, published 2022).
Read-outs that look alike come from different tables or passages of the source.

What was measured:
pos-tdocetaxel CRPC = details: phase III trial
[1] = tested on: progressive neuroendocrine tumors of pancreatic origin, and NETs of gastrointestinal (GI) or lung origin; details: Phase 3 trials
[2] = human, in vivo
[3] = tested on: human xenograft tumor model of NET; details: in vivo
lymphocytes = details: B- versus T-lymphocytes

## ipilimumab: antibody that targets the CTLA-4/B7 receptor complex, approved for unresectable or metastatic melanoma
pos-tdocetaxel CRPC
  improvement in OS with addition of ipilimumab to RT: no significant improvement in OS
Advanced melanoma; 13 patients with local response
  abscopal effect among patients with local response: 85%
Advanced melanoma; 21 patients, RT after ipilimumab progression
  no local regression: 38%
Advanced melanoma; all 21 patients
  median OS: 13 months
Advanced melanoma; patients with abscopal responses
  median OS: 22.4 months
Advanced melanoma; patients without abscopal responses
  median OS: 8.3 months

## CO[C@H]1C[C@@H]2CC[C@@H](C)[C@@](O)(O2)C(=O)C(=O)N2CCCC[C@H]2C(=O)O[C@H]([C@H](C)C[C@@H]2CC[C@@H](OCCO)[C@H](OC)C2)CC(=O)[C@H](C)/C=C(\C)[C@@H](O)[C@@H](OC)C(=O)[C@H](C)C[C@H](C)/C=C/C=C/C=C/1C [Everolimus]
[1]
  PFS: 11 months

## C[C@@H](O)[C@H](NC(=O)[C@@H]1CSSC[C@H](NC(=O)[C@@H](Cc2ccccc2)NC(=O)CN2CCN(CC(=O)[O-])CCN(CC(=O)[O-])CCN(CC(=O)[O-])CC2)C(=O)N[C@@H](Cc2ccc(O)cc2)C(=O)N[C@H](Cc2c[nH]c3ccccc23)C(=O)N[C@@H](CCCCN)C(=O)N[C@@H]([C@@H](C)O)C(=O)N1)C(=O)O.[177Lu+3] [Lutathera, [177]Lutetium-DOTA[O]-Tyr[3]-Octreotate]
[2]
  severe hematologic toxicity Grade 3-4: 3.1 % of the cases
[3]
  CD86+ APC infiltration: increased CD86+ APC infiltration
  expression of CD86 on APC: increased expression of CD86
lymphocytes
  lymphocyte toxicity, specificity: more specific to B-lymphocytes
